US7208505B2, “β3 adrenergic agonists” (Eli Lilly and Company, priority 2001, dated 2007)

Molecular target: T1, human β3 adrenergic receptor (Homo sapiens, UniProt P13945)
T1 construct: expressed in transfected cells
Test: whole cell receptor coupled c-AMP assay (Emax relative to isoproterenol)
Assay type: cell-based
Conditions: transfected CHO cells
Description: The genes encoding the human β1-adrenergic receptor (Frielle et al., Proc. Natl. Acad. Sci., 84:7920–7924, 1987), the human β2-adrenergic receptor (Kobika et al., Proc. Natl. Acad. Sci., 84:46–50, 1987, Emorine et al., Proc. Natl. Acad. Sci., 84:6995–6999, 1987) and the human β3 adrenergic receptor (Granneman et al., Molecular Pharmacology, 44(2):264–70, 1993) are individually subcloned into a phd expression vector (Grinnell et al., Bio/Technology, 5:1189–1192, 1987) and transfected into the DXB-11 Chinese hamster ovary (CHO) cell line by calcium phosphate precipitation methodology. The stably transfected cells are grown to 95% confluency in 95% Dulbecco's modified Eagles Medium (DMEM), 5% fetal bovine serum and 0.01% proline. Media is removed and the cells are washed with phosphate buffered (pH 7.4) saline (without magnesium and calcium). Cells are then lifted using an enzyme free cell dissociation solution (Specialty Media, Lavallette, N.J.) and pelleted by centrifugation.
Cells from each of the above cell lines are resuspended and added (20,000/well) to a 96-well plate. Cells are incubated at 37° C. with representative compounds of the invention for 20 minutes in buffer (Hank's balanced salt solution, 10 mM HEPES, 0.1% BSA, 1 mM L-ascorbic acid, 0.2% dimethyl sulfoxide, 1 mM 3-isobutyl-1-methylxanthine, pH 7.4). After halting the incubation with quench buffer (50 mM Na Acetate, 0.25% Triton X-100, pH 5.8), the c-AMP level is quantified by scintillation proximity assay (SPA) using a modification of the commercially available c-AMP kit (Amersham, Arlington Heights, Ill.) with rabbit anti-cAMP antibody (ICN Biomedicals, Aurora, Ohio) for the kit.
Sigmoidal dose response curves, from the whole cell receptor coupled c-AMP assay are fit to a four parameter logistic equation using non linear regression: y=(a−d)/(1+(Dose/c)^b)+d where a and d are responses at zero and maximal dose, b is the slope factor and c is the EC50 as previously described (DeLean et al., Am. J. Physiol., 235, E97-E102, 1978). EC50 is assessed as the concentration producing 50% of the maximum response to each agonist.
Isoproterenol is accepted in the art as a non-selective β3 agonist and is widely used as a comparator in evaluating the activity of compounds. See Trends in Pharm. Sci., 15:3, 1994. The % intrinsic activity (Emax) of representative compounds of the invention is assessed relative to isoproterenol by the compound's maximal response divided by the isoproterenol maximal response times 100.

[1] = CHO, % intrinsic activity: maximal response divided by isoproterenol maximal response times 100, average of at least 3 runs
[2] = % intrinsic activity: maximal response divided by isoproterenol maximal response times 100, average of at least 3 runs

T1 sequence (P13945 whole entry): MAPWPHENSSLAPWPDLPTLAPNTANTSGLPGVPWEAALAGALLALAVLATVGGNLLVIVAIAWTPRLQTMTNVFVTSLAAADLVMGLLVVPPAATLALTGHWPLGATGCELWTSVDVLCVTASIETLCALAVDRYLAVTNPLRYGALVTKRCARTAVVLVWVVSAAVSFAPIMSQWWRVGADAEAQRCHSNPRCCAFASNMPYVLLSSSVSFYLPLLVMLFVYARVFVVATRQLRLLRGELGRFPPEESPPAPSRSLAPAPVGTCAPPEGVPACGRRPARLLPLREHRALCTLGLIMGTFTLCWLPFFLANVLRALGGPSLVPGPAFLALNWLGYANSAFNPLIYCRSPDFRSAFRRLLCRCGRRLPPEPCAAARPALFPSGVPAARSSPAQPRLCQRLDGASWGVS

Row | SMILES | Emax (%) ± SEM [2] | other results
1 | CC(C)(Cc1c[nH]c2ccc(C(=O)O)cc12)NC[C@H](O)COc1ccccc1-c1cccs1 [Example 239] |  | Emax [1]: 69.6 ± 3.5%
2 | COC(=O)CCc1cccc2c(CC(C)(C)NC[C@H](O)COc3ccccc3-c3cccs3)c[nH]c12 [Example 145] | 79.3 ± 7.1% | 
3 | CC(C)(Cc1c[nH]c2c(C(=O)O)cccc12)NC[C@H](O)COc1ccccc1-c1cccs1 [Example 241] |  | Emax [1]: 70.1 ± 0.6%
4 | CC(C)(Cc1c[nH]c2c(CCc3nnn[nH]3)cccc12)NC[C@H](O)COc1ccccc1-c1cccs1 [Example 232] |  | Emax [1]: 79.5 ± 1.7%
5 | CC(C)(Cc1c[nH]c2c(Oc3ccc(C#N)cn3)cccc12)NC[C@H](O)COc1ccccc1-c1cccs1 [Example 115] | 83.3 ± 4.0% | 
6 | CC(C)(Cc1c[nH]c2c(OCC#N)cccc12)NC[C@H](O)COc1ccccc1-c1cccs1 [Example 101] | 76.5 ± 12.6% | 
7 | CC(=O)Nc1ccc(-c2cccc3c(CC(C)(C)NC[C@H](O)COc4ccccc4-c4cccs4)c[nH]c23)cc1 [Example 179] | 71.5 ± 1.1% | 
8 | CC(C)(Cc1c[nH]c2c(CCc3cnccn3)cccc12)NC[C@H](O)COc1ccccc1-c1cccs1 [Example 253] |  | Emax [1]: 81.6 ± 4%
9 | COC(=O)c1ccc2c(CC(C)(C)NC[C@H](O)COc3ccccc3-c3cccs3)c[nH]c2c1 [Example 75] | 47.2 ± 0.3% | 
10 | CC(C)(Cc1c[nH]c2ccccc12)NC[C@H](O)COc1ccccc1-n1ccc(C#N)c1 [Example 35] | 50.3 ± 2.2% | 
11 | CC(C)(Cc1c[nH]c2c(C=Cn3ccnc3)cccc12)NC[C@H](O)COc1ccccc1-c1cccs1 [Example 186] | 66.5 ± 0.4% | 
12 | CC(C)(Cc1c[nH]c2c(-c3ccc(C(F)(F)F)cc3)cccc12)NC[C@H](O)COc1ccccc1-c1cccs1 [Example 104] | 59.2 ± 1.0% | 
13 | CC(C)(Cc1c[nH]c2cccc(F)c12)NC[C@H](O)COc1ccccc1-c1ccon1 [Example 166] | 47.8 ± 0.6% | 
14 | CC(C)(Cc1c[nH]c2c(C=CC(N)=O)cccc12)NCC(O)COc1ccccc1-c1cccs1 (centres unmarked) [Example 139] | 86.5 ± 5.5% | 
15 | CC(C)(Cc1c[nH]c2c(CCc3ccc(C#N)cc3)cccc12)NC[C@H](O)COc1ccccc1-c1cccs1 [Example 187] | 77.9 ± 0.7% | 
16 | CC(C)(Cc1c[nH]c2c(OCC#N)cccc12)NC[C@H](O)COc1ccccc1-c1ccc(C#N)s1.O=C(O)C(F)(F)F [Example 12] | 77.7 ± 4.6% | 
17 | CC(=O)Nc1ccc(-c2cccc3c(CC(C)(C)NC[C@H](O)COc4ccccc4-c4ccon4)c[nH]c23)cc1 [Example 183] | 47.7 ± 1.6% | 
18 | CC(C)(Cc1c[nH]c2c(-c3ccc(C(=O)O)cc3)cccc12)NC[C@H](O)COc1ccccc1-c1ccon1 [Example 247] |  | Emax [1]: 54.6 ± 2.4%
19 | CC(C)(Cc1c[nH]c2cc(F)ccc12)NC[C@H](O)COc1ccccc1-c1ccon1 [Example 172] | 55.0 ± 1.1% | 

Row | SMILES | Emax (%) ± SEM [2] | other results
20 | C[C@H](Cn1ccc2c(C(=O)O)cccc21)NC[C@H](O)COc1ccccc1-c1cccs1 [Example 242] |  | Emax [1]: 59.6 ± 2.8%
21 | CC(C)(Cc1c[nH]c2c(CCc3ccc(S(N)(=O)=O)cc3)cccc12)NC[C@H](O)COc1ccccc1-c1cccs1 [Example 254] |  | Emax [1]: 80.9 ± 4.9%
22 | CC(C)(Cc1c[nH]c2c(OCC#N)cccc12)NC[C@H](O)COc1ccccc1-n1cccc1 [Example 1] | 64.1 ± 4.5% | 
23 | CC(C)(Cc1c[nH]c2c(CCC(N)=O)cccc12)NC[C@H](O)COc1ccccc1-c1cccs1 [Example 140] | 83.5 ± 2.7% | 
24 | COC(=O)c1cccc2c1ccn2C[C@@H](C)NC[C@H](O)COc1ccccc1-c1cccs1 [Example 153] | 45.2 ± 8.4% | 
25 | C[C@@H](Cc1c[nH]c2c(OCC#N)cccc12)NC[C@H](O)COc1ccccc1-c1nncs1 [Example 161] | 21.7 ± 3.1% | 
26 | C[C@H](Cn1ccc2c(OCC#N)cccc21)NC[C@H](O)COc1ccccc1-c1cccs1 [Example 152] | 63.1 ± 4.4% | 
27 | CC(C)(Cc1c[nH]c2c(C=Cc3cnccn3)cccc12)NC[C@H](O)COc1ccccc1-c1cccs1 [Example 188] | 70.5 ± 3.8% | 
28 | CC(C)(Cc1c[nH]c2c(C=CC#N)cccc12)NCC(O)COc1ccccc1-c1cccs1 (centres unmarked) [Example 143] | 66.4 ± 8.7% | 
29 | CC(C)(Cc1c[nH]c2c(-c3ccc(C(=O)O)s3)cccc12)NC[C@H](O)COc1ccccc1-c1cccs1 [Example 250] |  | Emax [1]: 92.5 ± 5.1%
30 | CC(C)(CNC(=O)c1c[nH]c2ccccc12)NC[C@H](O)COc1ccccc1-c1cccs1 [Example 73] | 32.1 ± 3.3% | 
31 | CC(C)(Cc1c[nH]c2ccccc12)NC[C@H](O)COc1ccccc1-c1ccns1 [Example 83] | 73.7 ± 2.0% | 
32 | CC(=O)c1ccc(-c2cccc3c(CC(C)(C)NC[C@H](O)COc4ccccc4-c4ccon4)c[nH]c23)cc1 [Example 49] | 44.2 ± 1.2% | 
33 | CC(C)(Cc1c[nH]c2cccc(C(N)=O)c12)NC[C@H](O)COc1ccccc1-c1cccs1 [Example 257] |  | Emax [1]: 81.8 ± 8.5%
34 | CC(C)(Cc1c[nH]c2c(CCc3ccc(-c4nnn[nH]4)cc3)cccc12)NC[C@H](O)COc1ccccc1-c1cccs1 [Example 251] |  | Emax [1]: 86.3 ± 3.4%
35 | CC(C)(Cc1c[nH]c2c(C(N)=O)cccc12)NC[C@H](O)COc1ccccc1-c1ccon1 [Example 175] | 41.1 ± 3.5% | 
36 | Cc1cc(-c2ccccc2OC[C@@H](O)CNC(C)(C)Cc2c[nH]c3c(OCC#N)cccc23)on1.O=C(O)C(F)(F)F [Example 10] | 63.2 ± 5.3% | 
37 | CC(C)(NC[C@H](O)COc1ccccc1-c1ccon1)C(=O)N1CCc2ccccc21 [Example 193] | 32.0 ± 5.5% | 
38 | CC(C)(Cc1c[nH]c2ccccc12)NC[C@H](O)COc1ccc(F)cc1-c1ccon1 [Example 80] | 43.4 ± 2.0% | 

Row | SMILES | Emax (%) ± SEM [2] | other results
39 | CC(C)(Cc1c[nH]c2ccccc12)NC[C@H](O)COc1ccccc1-c1cscn1 [Example 79] | 58.2 ± 2.3% | 
40 | C[C@H](NC[C@H](O)COc1ccccc1-c1cccs1)C(=O)N1CCc2ccccc21 [Example 130] | 36.3 ± 1.8% | 
41 | CC(C)(Cc1c[nH]c2cccc(F)c12)NC[C@H](O)COc1ccccc1-c1cccs1 [Example 162] | 64.2 ± 7.6% | 
42 | CC(C)(Cc1c[nH]c2ccc(C#N)cc12)NC[C@H](O)COc1ccccc1-c1cccs1 [Example 74] | 28.3 ± 2.6% | 
43 | CC(C)(Cc1c[nH]c2cc(C(=O)O)ccc12)NC[C@H](O)COc1ccccc1-c1cccs1 [Example 240] |  | Emax [1]: 78.7 ± 2.4%
44 | CC(C)(Cc1c[nH]c2cccc(C(=O)O)c12)NC[C@H](O)COc1ccccc1-c1cccs1 [Example 238] |  | Emax [1]: < 10%
45 | COC(=O)c1ccc2c(ccn2C[C@@H](C)NC[C@H](O)COc2ccccc2-c2cccs2)c1 [Example 154] | 32.4 ± 8.1% | 
46 | CC(C)(Cc1c[nH]c2cc(C#N)ccc12)NC[C@H](O)COc1ccccc1-c1cccs1 [Example 77] | 73.9 ± 1.3% | 
47 | CC(C)(Cc1c[nH]c2c(OCc3nnn[nH]3)cccc12)NC[C@H](O)COc1ccccc1-c1cccs1 [Example 229] |  | Emax [1]: 83 ± 2.5%
48 | CC(C)(Cc1c[nH]c2cc(OCC#N)ccc12)NC[C@H](O)COc1ccccc1-c1cccs1 [Example 168] | 62.1 ± 3.3% | 
49 | CC(C)(Cc1c[nH]c2ccccc12)NC[C@H](O)COc1ccccc1-c1ccc(C(=O)O)s1 [Example 221] |  | Emax [1]: 74.6 ± 3.6%
50 | CC(C)(Cc1c[nH]c2cc(C(=O)O)ccc12)NC[C@H](O)COc1ccccc1-c1ccc(C#N)s1 [Example 96] | 74.1 ± 2.4% | 
51 | C[C@H](Cn1ccc2ccccc21)NC[C@H](O)COc1ccccc1-c1ccon1 [Example 165] | 37.1 ± 4.0% | 
52 | CC(C)(Cc1c[nH]c2c(OCC(=O)O)cccc12)NC[C@H](O)COc1ccccc1-c1cccs1.Cl [Example 226] | 70.3 ± 5.7% | 
53 | CC(Cc1c[nH]c2c(OCC#N)cccc12)NC[C@H](O)COc1ccccc1-c1ccno1 (some centres unmarked) [Example 199] |  | Emax (% intrinsic activity relative to isoproterenol): 22.8%
54 | CC(C)(Cc1c[nH]c2ccccc12)NC[C@H](O)COc1ccccc1-c1ccon1 [Example 164] | 53.9 ± 2.6% | 
55 | CC(C)(Cc1c[nH]c2c(-c3cccs3)cccc12)NC[C@H](O)COc1ccccc1-c1ccon1 [Example 109] | 68.0 ± 4.1% | 
56 | CC(C)(Cc1c[nH]c2c(-c3ccc(C(=O)O)cc3)cccc12)NC[C@H](O)COc1ccccc1-c1cccs1 [Example 246] |  | Emax [1]: 79.2 ± 3.4%
